Measurements taken from ChEMBL document CHEMBL4393741, “Novel epidithiodiketopiperazines as anti-viral zinc ejectors of the Feline Immunodeficiency Virus (FIV) nucleocapsid protein as a model for HIV infection” (Bioorg Med Chem, 2019).

How the values were obtained:
[1] = Acute cytotoxicity against cat CRFK cells assessed as decrease in cell viability at 10 uM measured after 24 hrs by MTT assay relative to control; format: cell-based, Felis catus
[2] = Solubility of the compound; format: physicochemical
[3] = test system: Feline immunodeficiency virus; test: Antiviral activity against FIV infected in cat FL-4 cells assessed as reduction in viral RNA level measured after 7 days by qRT-PCR analysis; format: functional, organism-based; conditions: FL-4, 168 h
[4] = Therapeutic index, ratio of CC50 for cat FL-4 cells to EC50 for antiviral activity against FIV infected in cat FL-4 cells; format: toxicity, cell-based; conditions: read-out: Ratio CC50/EC50
[5] = Chronic cytotoxicity against cat FL-4 cells assessed as decrease in cell viability measured after 7 days by MTT assay; format: cell-based, Felis catus
[6] = Aqueous solubility of the compound; format: physicochemical; conditions: buffer

SMILES	Activity [1]	solubility [2]	EC50 [3]	selectivity ratio [4]	CC50 at 168 h [5]	solubility [6]
CN1C(=O)[C@]23CC4=CC=C[C@H](O)[C@H]4N2C(=O)[C@@]1(CO)SS3 [GLIOTOXIN]	6.1%					
CN1C(=O)[C@@H]2SS[C@H]1C(=O)N2C (racemic)	77%	Insoluble	3000 nM	> 3	> 10000 nM	
O=C1[C@@H]2SS[C@@H](C(=O)N2Cc2cccc3ccccc23)N1Cc1ccccc1 (racemic)	> 100%		1900 nM	4	7200 nM	
O=C1[C@@H]2SS[C@@H](C(=O)N2Cc2ccccc2)N1Cc1ccccc1 (racemic)	> 100%		3900 to 4000 nM	1.2	4700 nM	
C=CCN1C(=O)[C@@H]2SS[C@@]1(CC=C)C(=O)N2Cc1ccccc1 (racemic)	> 100%		> 10000 nM		> 100000 nM	Insoluble
COC(=O)CCCCCN1C(=O)[C@@H]2SS[C@H]1C(=O)N2Cc1ccccc1 (racemic)	> 100%	Soluble	34 nM	> 300	> 10000 nM	
C=CCN1C(=O)[C@@H]2SS[C@H]1C(=O)N2Cc1ccccc1 (racemic)	96%		2100 nM	2.4	5100 nM	
CCCCN1C(=O)[C@@H]2SS[C@H]1C(=O)N2Cc1ccccc1 (racemic)	63%		630 nM	> 16	> 10000 nM	
C=CC[C@@]12SS[C@@H](C(=O)N1Cc1ccccc1)N(Cc1ccccc1)C2=O (racemic)	> 100%		88 nM	69	6000 nM	
Cc1nnc(C(=O)NC(C)(C)c2nc(C(=O)NCc3ccc(F)cc3)c(O)c(=O)n2C)o1 [RALTEGRAVIR]	> 100%		10 nM	> 10000	> 100000 nM	
O=C1[C@H](S)N(Cc2ccccc2)C(=O)[C@H](S)N1Cc1ccccc1	> 100%		1800 nM		15000 nM	
CN1C(=O)[C@]2(Cc3ccccc3)SS[C@@]1(CO)C(=O)N2C	74%					
C=CCN1C(=O)[C@]2(CC=C)SS[C@@]1(CC=C)C(=O)N2CC=C (racemic)	99%		880 nM	10	8800 nM	
C=CCN1C(=O)[C@@H]2SS[C@@]1(Cc1ccccc1)C(=O)N2Cc1ccccc1 (racemic)	85%		110 nM	6.7	720 nM	
O=C1[C@@H]2SS[C@@H](C(=O)N2Cc2cccc(Cl)c2)N1Cc1ccccc1 (racemic)	> 100%		550 nM	> 184	> 100000 nM	
CCOC(=O)CCN1C(=O)[C@@H]2SS[C@H]1C(=O)N2Cc1ccccc1 (racemic)	> 100%	Soluble	53 nM	> 190	> 10000 nM	
Cc1cn([C@H]2C[C@H](N=[N+]=[N-])[C@@H](CO)O2)c(=O)[nH]c1=O [ZIDOVUDINE]	> 100%		5300 nM		> 100000 nM	
CCOC(=O)CCCN1C(=O)[C@@H]2SS[C@H]1C(=O)N2Cc1ccccc1 (racemic)	> 100%	Soluble	160 nM	48	7500 nM	
CC(C)N1C(=O)[C@@H]2SS[C@H]1C(=O)N2Cc1ccccc1 (racemic)	50%		1600 nM	4	6500 nM	
CN1C(=O)[C@@H]2SS[C@H]1C(=O)N2Cc1ccccc1 (racemic)	> 100%		910 nM	> 11	> 10000 nM	
C=CCN1C(=O)[C@]2(Cc3ccccc3)SS[C@H]1C(=O)N2Cc1ccccc1 (racemic)	> 100%		890 nM	88	79000 nM	
COc1ccc(CN2C(=O)[C@@H]3SS[C@H]2C(=O)N3Cc2ccccc2)cc1 (racemic)	99%		410 nM		5400 nM	
CS[C@H]1C(=O)N(Cc2ccccc2)[C@@H](SC)C(=O)N1Cc1ccccc1 (relative stereo)	96%		> 100000 nM		> 100000 nM	
CN1C(=O)[C@@]23C[C@]4([C@]56C[C@@]78SS[C@@](CO)(C(=O)N7[C@H]5Nc5ccccc56)N(C)C8=O)c5ccccc5N[C@@H]4N2C(=O)[C@]1(CO)SS3 [CHAETOCIN]	11%		1.7 nM	2.1	3.5 nM	
